“Also recorded” adds a separate entry of the source.

The record followed here is patent US12708673B2, “Methods and compositions related to peptides and proteins with c-terminal elements” (Sanford Burnham Prebys Medical Discovery Institute, priority 2008, dated 2026).

Assay [1] concerns the target T1, triple mutant NS346A-E348A-T349A NRP-1 (Homo sapiens, UniProt O14786, E348A/S346A/T349A).
T1 construct: expressed in transfected cells; host or cells: M21 melanoma cells, transient transfection with lipofectamine; site-directed mutant of the wild-type NRP-1 cDNA in pcDNA3.1(+)
As to the kind of experiment: Phage binding to M21 melanoma cells transfected with NRP-1 binding pocket mutant. The assay is classed as cell-based. The protocol: FIGS. 18A-18C show the identification and validation of NRP-1 as the CendR receptor. FIG. 18A: Affinity chromatography of proteins interacting with RPARPAR (SEQ ID NO: 2) peptide. PPC-1 tumor tissue was extracted with a 200 mM glucopyranoside buffer, and the extract was incubated with RPARPAR-coated (SEQ ID NO:2) beads, followed by extensive washes, and elution with 2 mM free RPARPAR (SEQ ID NO:2) peptide. Note appearance of a 130 kDa band, identified by mass spectroscopy as NRP-1, starting in the fraction 3 of the eluate. Upper panel—a silver stained gel, lower panel—an immunoblot with anti-NRP-1 antibody. FIG. 18B: Binding of RPARPAR (SEQ ID NO:2) phage to M21 melanoma cells transiently transfected with wild-type NRP-1 (NRP-1), triple mutant NS346A-E348A-T349A NRP-1 (Mutant NRP-1), or parental pcDNA3.1plasmid (Vector), and to non-transfected M21 cells. FIG. 18C: (c, d), Confocal immunofluorescence images of NRP-1 and RPARPAR (SEQ ID NO:2) T7 phage in PPC-1 cells incubated with phage at 37° C. for 40 minutes (c) and 3 hours (d). The phage and NRP-1 co-localize extensively, but there appears to be a progressive decrease in the overlap (arrowheads in c and d) and appearance of structures positive for the phage only (arrows, d). (e) Immunostaining and confocal imaging of RPARPAR (SEQ ID NO:2) phage and NRP-1 in M21 cells transiently transfected with NRP-1. […]

The next assay has as its system PPC-1 cells. As to the kind of experiment: Confocal immunofluorescence co-staining of phage/qdots with cellular markers in PPC-1 cells. Format: cell-based, human.
Assay [2] concerns human umbilical vein endothelial cells (HUVEC). As to the kind of experiment: RPARPAR phage binding to cultured cells at 4° C. Format: cell-based. The procedure:
(§1) FIG. 15A: Binding of RPARPAR (SEQ ID NO:2) phage to the cultured cells at 4° C. in vitro. FIG. 15B: Binding of RPARPAR (SEQ ID NO:2) phage to primary cell suspensions of mouse organs at 4° C. ex vivo. FIGS. 15C and 15D: Tissue distribution of intravenously injected RPARPAR (SEQ ID NO:2) phage after 20 minutes of circulation time. FIG. 15C: Phage was quantified by titration, tissue binding is expressed as fold G7 phage. Statistical analysis was performed by Student's t-test (c). n=3; error bars indicate s.d.; double asterisk, p<0.01, triple asterisk, p<0.001. FIG. 15D (panels d and e): Immunofluorescence localization of T7 phage (light coloring) in lung sections of mice injected intravenously with RPARPAR (SEQ ID NO:2) (d) or G7 (e) phage. Widespread immunoreactivity is present in the lungs of mice injected with RPARPAR (SEQ ID NO:2) (arrowheads in d) but not G7 (with occasional labeling seen in vessels, arrows in e). Scale bar: 50 μm.
(§2) Phage display. For in vivo phage display, mice were injected intravenously with 10^10 plaque-forming units (pfu) of T7 phage followed by perfusion of the circulatory system and determination of the bound phage in target organs by titration. For cell binding studies on cultured cells (in vitro display) and organ-derived cell suspensions (ex vivo display), the cells were incubated with 10^9 pfu of phage at 4° C., washed, lysed, and quantified by titration. Incubation at 37° C. followed by low pH wash (glycine-HCl, pH 2.5) was used to assess the amount of internalized phage.
(§3) For biopanning and phage binding studies (Hoffman, J. A. et al., 2004), cultured cells were grown to confluence and harvested with trypsin and mouse organs were dissociated using Medimachine (BD Biosciences, San Jose, CA). To measure phage binding, 10^6 cells in binding buffer (DMEM containing 1% BSA) were incubated with 10^9 pfu/ml of T7 phage for 1 hour at 4° C. The cells were washed 4 times with the binding buffer, lysed in LB bacterial growth medium containing 1% NP-40, and titrated. Phage internalization assays used the same procedure, except that the cells were incubated with the phage at 37° C., and that an acidic buffer (500 mM sodium chloride, 0.1 M glycine, 1% BSA, pH 2.5) was used instead of binding buffer in the second wash.

Another assay has as its system 4T1. As to the kind of experiment: RPARPAR phage binding to cultured cells at 4° C. The conditions noted are these: 4T1 breast cancer. The assay is classed as cell-based. The procedure: as §1, §2, §3
A further assay relates to MIA PaCa-2. Put plainly: RPARPAR phage binding to cultured cells at 4° C. Format: cell-based. The conditions noted are these: MIA PaCa-2 pancreatic carcinoma. The protocol: as §1, §2, §3
A further assay concerns M21 melanoma cells. Put plainly: RPARPAR phage binding to cultured cells at 4° C. As to conditions: non-transfected M21. The assay is classed as cell-based. The procedure: as §1, §2, §3
Assay [3] concerns MDA-MB-435 human cancer cells. As to the kind of experiment: RPARPAR phage binding to cultured cells at 4° C. Format: cell-based. The protocol: as §1, §2, §3
The next assay concerns PDAC1.3. As to the kind of experiment: RPARPAR phage binding to cultured cells at 4° C. Format: cell-based. The conditions noted are these: PDAC1.3 pancreatic carcinoma. The procedure: as §1, §2, §3
Assay [4] relates to murine vascular endothelial cells (F2). As to the kind of experiment: RPARPAR phage binding to cultured cells at 4° C. The assay is classed as cell-based. The procedure:
as §1, §2, §3

Another assay deals with B16F10. As to the kind of experiment: RPARPAR phage binding to cultured cells at 4° C. The assay is classed as cell-based. The conditions noted are these: B16F10 melanoma cells. The procedure: as §1, §2, §3

T1 sequence (O14786 22-923 S346A/E348A/T349A): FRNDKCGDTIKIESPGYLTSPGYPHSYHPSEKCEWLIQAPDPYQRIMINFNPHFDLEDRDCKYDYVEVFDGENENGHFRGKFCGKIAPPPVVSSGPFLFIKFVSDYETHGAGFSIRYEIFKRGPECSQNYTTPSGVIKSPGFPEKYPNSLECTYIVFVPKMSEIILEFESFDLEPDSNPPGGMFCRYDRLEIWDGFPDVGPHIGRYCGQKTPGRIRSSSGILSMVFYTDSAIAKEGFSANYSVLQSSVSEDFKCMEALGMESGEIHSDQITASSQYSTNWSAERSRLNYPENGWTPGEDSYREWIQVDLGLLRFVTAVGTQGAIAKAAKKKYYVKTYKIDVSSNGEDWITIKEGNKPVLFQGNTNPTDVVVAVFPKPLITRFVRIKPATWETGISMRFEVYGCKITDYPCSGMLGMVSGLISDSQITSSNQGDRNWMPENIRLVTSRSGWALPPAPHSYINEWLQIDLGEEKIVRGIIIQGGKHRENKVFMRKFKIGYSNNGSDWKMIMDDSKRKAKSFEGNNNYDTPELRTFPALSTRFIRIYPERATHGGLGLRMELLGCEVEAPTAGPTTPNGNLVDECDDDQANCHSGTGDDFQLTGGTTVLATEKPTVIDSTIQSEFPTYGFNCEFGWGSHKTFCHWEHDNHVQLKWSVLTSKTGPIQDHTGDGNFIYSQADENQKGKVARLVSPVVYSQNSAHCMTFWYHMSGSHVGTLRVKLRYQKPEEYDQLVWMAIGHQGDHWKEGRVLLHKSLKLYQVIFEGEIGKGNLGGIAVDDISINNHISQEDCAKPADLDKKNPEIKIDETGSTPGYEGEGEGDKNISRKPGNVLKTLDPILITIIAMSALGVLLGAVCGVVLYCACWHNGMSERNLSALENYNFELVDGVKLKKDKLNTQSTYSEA

Turning to RPARPAR [RPARPAR phage], the “Phage binding to M21 cells transfected with NRP-1 binding pocket mutant” value in assay [1] is given as “did not confer”. Also, the “Overlap of phage immunoreactivity with labeled cholera toxin subunit B” value with PPC-1 cells (180 minutes) is given as “significant overlap”. The “Overlap of internalized phage staining with subcellular compartment markers” value in the assay on PPC-1 cells (LAMP-1, caveolin-1, calnexin, EEA-1, 60 minutes) was “did not show any clear overlap”. For the same substance, the Phage binding result in assay [2] is “binding was also seen”; with 4T1 it was “bound”; in the assay with MIA PaCa-2, “bound”; in assay [3], “bound”; in the assay on PDAC1.3 it was “bound”; in assay [4], “binding was also seen”. Also, in the assay with B16F10, the Phage binding entry was “bound”. The “Phage binding over control phage” value in the assay on M21 melanoma cells is given as “did not bind; also recorded: do not bind nor internalize”.
